Columns and labels:
[1] = molecular target: Non-receptor tyrosine-protein kinase TNK1 (Homo sapiens) (UniProt Q13470); conditions: Compound concentration 100.0 nM
[2] = molecular target: Focal adhesion kinase 1 (Homo sapiens) (UniProt Q05397); conditions: Compound concentration 100.0 nM
[3] = molecular target: Phosphatidylinositol 4,5-bisphosphate 3-kinase catalytic subunit beta isoform (Homo sapiens) (UniProt P42338); conditions: Compound concentration 100.0 nM
[4] = molecular target: Serine/threonine-protein kinase PLK2 (Homo sapiens) (UniProt Q9NYY3); conditions: Compound concentration 100.0 nM
Sequence of Serine/threonine-protein kinase PLK2 (Homo sapiens) (Q9NYY3 whole entry, looked up): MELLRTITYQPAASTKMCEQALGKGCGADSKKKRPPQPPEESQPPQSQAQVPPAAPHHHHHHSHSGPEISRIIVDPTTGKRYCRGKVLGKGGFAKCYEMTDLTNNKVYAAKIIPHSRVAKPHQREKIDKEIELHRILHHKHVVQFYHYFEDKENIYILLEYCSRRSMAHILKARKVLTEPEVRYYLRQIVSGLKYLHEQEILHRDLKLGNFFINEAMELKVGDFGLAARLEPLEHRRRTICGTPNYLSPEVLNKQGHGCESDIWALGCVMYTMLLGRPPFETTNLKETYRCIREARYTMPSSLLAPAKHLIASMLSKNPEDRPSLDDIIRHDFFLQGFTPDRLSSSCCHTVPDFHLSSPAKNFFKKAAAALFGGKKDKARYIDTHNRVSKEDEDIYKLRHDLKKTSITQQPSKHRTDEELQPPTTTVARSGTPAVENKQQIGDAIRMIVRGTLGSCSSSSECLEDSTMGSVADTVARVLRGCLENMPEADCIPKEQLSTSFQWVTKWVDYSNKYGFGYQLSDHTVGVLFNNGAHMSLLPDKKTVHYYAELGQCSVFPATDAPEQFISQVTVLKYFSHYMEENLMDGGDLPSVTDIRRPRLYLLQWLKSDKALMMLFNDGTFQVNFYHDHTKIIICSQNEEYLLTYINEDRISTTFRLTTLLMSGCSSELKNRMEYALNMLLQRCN

[5] = molecular target: cGMP-dependent protein kinase 2 (Homo sapiens) (UniProt Q13237); conditions: Compound concentration 100.0 nM
[6] = molecular target: Serine/threonine-protein kinase PLK4 (Homo sapiens) (UniProt O00444); conditions: Compound concentration 100.0 nM
[7] = molecular target: 5-hydroxytryptamine receptor 2B (Homo sapiens) (UniProt P41595); conditions: Compound concentration 10.0 uM
Sequence of 5-hydroxytryptamine receptor 2B (Homo sapiens) (P41595 whole entry, canonical isoform): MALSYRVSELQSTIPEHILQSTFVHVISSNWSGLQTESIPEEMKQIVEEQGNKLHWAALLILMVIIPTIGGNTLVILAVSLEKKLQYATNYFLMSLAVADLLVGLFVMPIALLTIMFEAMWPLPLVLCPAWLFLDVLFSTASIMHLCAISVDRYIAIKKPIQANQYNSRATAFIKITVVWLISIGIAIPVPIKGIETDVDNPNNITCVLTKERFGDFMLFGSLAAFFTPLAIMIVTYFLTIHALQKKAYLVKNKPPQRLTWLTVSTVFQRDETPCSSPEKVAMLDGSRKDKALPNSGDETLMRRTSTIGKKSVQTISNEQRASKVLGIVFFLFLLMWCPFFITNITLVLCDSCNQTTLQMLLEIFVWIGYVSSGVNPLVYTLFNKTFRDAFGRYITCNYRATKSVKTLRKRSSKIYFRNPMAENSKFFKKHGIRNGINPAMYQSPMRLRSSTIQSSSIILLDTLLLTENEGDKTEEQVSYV

[8] = molecular target: Casein kinase I isoform delta (Homo sapiens) (UniProt P48730); conditions: Compound concentration 100.0 nM
Sequence of Casein kinase I isoform delta (Homo sapiens) (P48730 whole entry, looked up, canonical isoform): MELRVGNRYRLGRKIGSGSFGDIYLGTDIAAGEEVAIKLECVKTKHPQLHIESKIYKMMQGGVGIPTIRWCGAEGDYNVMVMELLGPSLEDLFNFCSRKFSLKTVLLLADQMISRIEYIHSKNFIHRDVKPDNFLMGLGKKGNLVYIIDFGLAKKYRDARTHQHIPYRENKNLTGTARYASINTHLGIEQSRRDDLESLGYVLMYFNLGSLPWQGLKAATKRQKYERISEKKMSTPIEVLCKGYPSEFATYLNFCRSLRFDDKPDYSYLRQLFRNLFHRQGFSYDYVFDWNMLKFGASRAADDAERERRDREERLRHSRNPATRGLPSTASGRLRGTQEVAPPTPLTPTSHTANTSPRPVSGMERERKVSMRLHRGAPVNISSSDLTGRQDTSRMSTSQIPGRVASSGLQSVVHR

[9] = molecular target: Fibroblast growth factor receptor 4 (Homo sapiens) (UniProt P22455); conditions: Compound concentration 100.0 nM
[10] = molecular target: Peripheral plasma membrane protein CASK (Homo sapiens) (UniProt O14936); conditions: Compound concentration 100.0 nM
[11] = molecular target: Serine/threonine-protein kinase WNK2 (Homo sapiens) (UniProt Q9Y3S1); conditions: Compound concentration 100.0 nM
[12] = molecular target: Serine/threonine-protein kinase SIK3 (Homo sapiens) (UniProt Q9Y2K2); conditions: Compound concentration 100.0 nM
Sequence of Serine/threonine-protein kinase SIK3 (Homo sapiens) (Q9Y2K2 whole entry, looked up): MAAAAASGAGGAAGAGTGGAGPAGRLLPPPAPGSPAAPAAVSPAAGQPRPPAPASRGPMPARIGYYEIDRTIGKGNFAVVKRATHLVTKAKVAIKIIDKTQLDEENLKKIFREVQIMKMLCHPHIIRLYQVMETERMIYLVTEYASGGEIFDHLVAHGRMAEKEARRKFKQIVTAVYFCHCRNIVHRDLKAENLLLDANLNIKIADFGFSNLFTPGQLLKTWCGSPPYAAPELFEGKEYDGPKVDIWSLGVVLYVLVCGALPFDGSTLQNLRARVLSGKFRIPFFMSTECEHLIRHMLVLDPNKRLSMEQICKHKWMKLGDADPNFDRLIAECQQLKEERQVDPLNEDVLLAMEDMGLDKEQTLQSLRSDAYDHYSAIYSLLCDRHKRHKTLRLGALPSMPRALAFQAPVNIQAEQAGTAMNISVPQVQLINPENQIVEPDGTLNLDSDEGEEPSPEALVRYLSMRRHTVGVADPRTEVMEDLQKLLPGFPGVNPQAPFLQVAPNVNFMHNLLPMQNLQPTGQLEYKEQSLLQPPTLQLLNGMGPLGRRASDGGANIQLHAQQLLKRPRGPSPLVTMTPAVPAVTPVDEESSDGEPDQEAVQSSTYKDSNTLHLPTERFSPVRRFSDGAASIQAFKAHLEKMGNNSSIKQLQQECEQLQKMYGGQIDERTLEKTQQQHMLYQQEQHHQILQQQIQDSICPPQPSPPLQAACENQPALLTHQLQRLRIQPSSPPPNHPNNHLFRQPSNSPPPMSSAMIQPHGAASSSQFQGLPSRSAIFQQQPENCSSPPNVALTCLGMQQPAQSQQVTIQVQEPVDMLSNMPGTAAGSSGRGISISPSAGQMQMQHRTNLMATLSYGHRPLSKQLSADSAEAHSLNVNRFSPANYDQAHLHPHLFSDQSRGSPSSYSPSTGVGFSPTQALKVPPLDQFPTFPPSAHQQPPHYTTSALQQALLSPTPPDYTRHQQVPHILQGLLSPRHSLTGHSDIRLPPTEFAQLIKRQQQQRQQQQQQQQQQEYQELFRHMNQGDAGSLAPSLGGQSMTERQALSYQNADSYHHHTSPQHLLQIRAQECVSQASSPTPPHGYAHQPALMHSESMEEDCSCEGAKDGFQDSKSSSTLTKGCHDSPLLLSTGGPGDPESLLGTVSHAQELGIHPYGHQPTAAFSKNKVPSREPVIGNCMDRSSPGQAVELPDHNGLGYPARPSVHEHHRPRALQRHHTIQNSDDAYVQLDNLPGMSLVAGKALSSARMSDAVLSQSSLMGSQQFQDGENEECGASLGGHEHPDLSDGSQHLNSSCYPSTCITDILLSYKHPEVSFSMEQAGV

[13] = molecular target: Platelet-derived growth factor receptor beta (Homo sapiens) (UniProt P09619); conditions: Compound concentration 100.0 nM
[14] = molecular target: Phosphatidylinositol 5-phosphate 4-kinase type-2 beta (Homo sapiens) (UniProt P78356); conditions: Compound concentration 100.0 nM
[15] = molecular target: Ephrin type-B receptor 2 (Homo sapiens) (UniProt P29323); conditions: Compound concentration 100.0 nM
[16] = molecular target: Insulin receptor (Homo sapiens) (UniProt P06213); conditions: Compound concentration 100.0 nM
[17] = molecular target: Myosin light chain kinase 2, skeletal/cardiac muscle (Homo sapiens) (UniProt Q9H1R3); conditions: Compound concentration 100.0 nM
[18] = molecular target: SRSF protein kinase 2 (Homo sapiens) (UniProt P78362); conditions: Compound concentration 100.0 nM
Sequence of SRSF protein kinase 2 (Homo sapiens) (P78362 whole entry, looked up): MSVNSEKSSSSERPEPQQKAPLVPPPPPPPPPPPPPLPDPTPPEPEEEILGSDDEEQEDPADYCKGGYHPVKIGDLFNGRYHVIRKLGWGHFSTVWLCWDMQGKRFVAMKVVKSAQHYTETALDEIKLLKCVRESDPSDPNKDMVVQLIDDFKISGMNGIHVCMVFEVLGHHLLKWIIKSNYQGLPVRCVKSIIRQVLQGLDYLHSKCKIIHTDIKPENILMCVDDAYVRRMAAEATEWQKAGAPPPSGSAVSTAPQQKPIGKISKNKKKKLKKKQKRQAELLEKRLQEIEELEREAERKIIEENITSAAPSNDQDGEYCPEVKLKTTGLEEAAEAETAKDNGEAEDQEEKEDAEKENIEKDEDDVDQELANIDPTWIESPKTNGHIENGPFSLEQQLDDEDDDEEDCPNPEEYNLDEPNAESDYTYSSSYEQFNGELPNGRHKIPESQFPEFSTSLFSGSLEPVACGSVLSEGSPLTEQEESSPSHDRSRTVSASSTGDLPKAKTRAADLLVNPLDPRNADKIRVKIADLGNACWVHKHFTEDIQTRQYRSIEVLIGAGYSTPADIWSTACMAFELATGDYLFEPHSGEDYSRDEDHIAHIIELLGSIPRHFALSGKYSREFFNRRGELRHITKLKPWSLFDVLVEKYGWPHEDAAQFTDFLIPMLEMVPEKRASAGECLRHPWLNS

[19] = molecular target: Serine/threonine-protein kinase 32C (Homo sapiens) (UniProt Q86UX6); conditions: Compound concentration 100.0 nM
[20] = system: Mast/stem cell growth factor receptor Kit (Homo sapiens), P10721 [D816V]; conditions: Compound concentration 100.0 nM
[21] = molecular target: Casein kinase I isoform gamma-3 (Homo sapiens) (UniProt Q9Y6M4); conditions: Compound concentration 100.0 nM
Sequence of Casein kinase I isoform gamma-3 (Homo sapiens) (Q9Y6M4 whole entry, looked up, canonical isoform): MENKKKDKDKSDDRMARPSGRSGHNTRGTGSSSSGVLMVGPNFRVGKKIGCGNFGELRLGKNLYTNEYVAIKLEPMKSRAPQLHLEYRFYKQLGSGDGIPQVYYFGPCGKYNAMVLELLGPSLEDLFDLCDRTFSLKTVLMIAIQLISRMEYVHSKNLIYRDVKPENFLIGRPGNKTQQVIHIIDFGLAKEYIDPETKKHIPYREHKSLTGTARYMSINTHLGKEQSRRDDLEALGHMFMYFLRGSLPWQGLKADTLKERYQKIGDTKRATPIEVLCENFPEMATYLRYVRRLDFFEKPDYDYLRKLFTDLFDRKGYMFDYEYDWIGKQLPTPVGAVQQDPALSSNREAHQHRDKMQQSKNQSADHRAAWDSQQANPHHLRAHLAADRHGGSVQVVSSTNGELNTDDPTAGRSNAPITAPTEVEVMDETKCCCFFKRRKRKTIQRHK

[22] = molecular target: Mitogen-activated protein kinase 4 (Homo sapiens) (UniProt P31152); conditions: Compound concentration 100.0 nM
Sequence of Mitogen-activated protein kinase 4 (Homo sapiens) (P31152 whole entry): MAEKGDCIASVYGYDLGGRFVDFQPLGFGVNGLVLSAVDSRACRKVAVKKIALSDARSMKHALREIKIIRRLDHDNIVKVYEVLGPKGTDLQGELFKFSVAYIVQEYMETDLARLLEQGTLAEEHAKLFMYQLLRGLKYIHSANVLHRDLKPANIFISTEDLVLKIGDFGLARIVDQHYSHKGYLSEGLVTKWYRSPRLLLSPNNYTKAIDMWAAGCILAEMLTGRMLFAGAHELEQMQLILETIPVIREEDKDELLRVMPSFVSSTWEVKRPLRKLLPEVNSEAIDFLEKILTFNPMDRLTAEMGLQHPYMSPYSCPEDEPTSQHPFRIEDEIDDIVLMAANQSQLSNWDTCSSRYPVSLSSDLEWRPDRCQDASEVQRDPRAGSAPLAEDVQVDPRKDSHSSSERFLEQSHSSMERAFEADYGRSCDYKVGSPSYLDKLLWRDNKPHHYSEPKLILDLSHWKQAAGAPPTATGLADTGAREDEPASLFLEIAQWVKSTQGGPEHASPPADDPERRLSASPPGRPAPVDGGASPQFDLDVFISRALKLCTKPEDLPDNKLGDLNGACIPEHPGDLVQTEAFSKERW

[23] = molecular target: Serine/threonine-protein kinase Chk2 (Homo sapiens) (UniProt O96017); conditions: Compound concentration 100.0 nM
[24] = molecular target: Bone morphogenetic protein receptor type-1B (Homo sapiens) (UniProt O00238); conditions: Compound concentration 100.0 nM
[25] = molecular target: Serine/threonine-protein kinase 35 (Homo sapiens) (UniProt Q8TDR2); conditions: Compound concentration 100.0 nM
[26] = molecular target: Phosphatidylinositol 4-kinase beta (Homo sapiens) (UniProt Q9UBF8); conditions: Compound concentration 100.0 nM
[27] = molecular target: Serine/threonine-protein kinase PAK 3 (Homo sapiens) (UniProt O75914); conditions: Compound concentration 100.0 nM
[28] = molecular target: Serine/threonine-protein kinase 17A (Homo sapiens) (UniProt Q9UEE5); conditions: Compound concentration 100.0 nM
Sequence of Serine/threonine-protein kinase 17A (Homo sapiens) (Q9UEE5 whole entry): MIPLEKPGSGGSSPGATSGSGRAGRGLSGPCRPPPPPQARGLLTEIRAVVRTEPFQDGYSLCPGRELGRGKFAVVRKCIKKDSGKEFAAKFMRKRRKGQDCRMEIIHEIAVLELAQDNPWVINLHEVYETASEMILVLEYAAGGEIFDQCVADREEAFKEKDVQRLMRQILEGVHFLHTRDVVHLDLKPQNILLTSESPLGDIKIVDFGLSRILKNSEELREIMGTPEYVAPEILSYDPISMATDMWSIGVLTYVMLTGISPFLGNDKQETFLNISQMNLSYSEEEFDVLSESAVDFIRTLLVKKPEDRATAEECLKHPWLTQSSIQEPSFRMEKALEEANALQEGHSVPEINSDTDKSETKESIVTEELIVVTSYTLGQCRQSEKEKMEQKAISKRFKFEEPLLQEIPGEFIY

[29] = molecular target: Serine/threonine-protein kinase NIM1 (Homo sapiens) (UniProt Q8IY84); conditions: Compound concentration 100.0 nM
[30] = system: Mast/stem cell growth factor receptor Kit (Homo sapiens), P10721 [D816H]; conditions: Compound concentration 100.0 nM
[31] = molecular target: Inhibitor of nuclear factor kappa-B kinase subunit alpha (Homo sapiens) (UniProt O15111); conditions: Compound concentration 100.0 nM
[32] = molecular target: T1, Protein kinase C iota type (Homo sapiens) (UniProt P41743); conditions: Compound concentration 100.0 nM
T1 sequence (whole entry): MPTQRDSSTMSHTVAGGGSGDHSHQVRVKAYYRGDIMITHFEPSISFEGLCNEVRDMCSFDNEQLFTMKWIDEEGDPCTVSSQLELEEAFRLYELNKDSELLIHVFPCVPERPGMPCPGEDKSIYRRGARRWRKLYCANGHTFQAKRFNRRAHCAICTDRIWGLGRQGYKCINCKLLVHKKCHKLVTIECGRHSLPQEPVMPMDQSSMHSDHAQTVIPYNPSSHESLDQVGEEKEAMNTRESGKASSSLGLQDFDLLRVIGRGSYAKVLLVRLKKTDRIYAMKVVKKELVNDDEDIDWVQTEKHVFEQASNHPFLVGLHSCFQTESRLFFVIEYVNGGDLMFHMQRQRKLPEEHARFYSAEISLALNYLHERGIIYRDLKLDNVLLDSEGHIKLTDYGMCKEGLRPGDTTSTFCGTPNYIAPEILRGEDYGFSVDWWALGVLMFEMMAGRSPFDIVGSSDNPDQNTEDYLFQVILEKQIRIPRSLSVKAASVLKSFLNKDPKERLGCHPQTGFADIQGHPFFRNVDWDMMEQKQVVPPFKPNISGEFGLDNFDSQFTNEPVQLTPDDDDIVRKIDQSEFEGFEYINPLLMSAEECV

[33] = molecular target: Aurora kinase B (Homo sapiens) (UniProt Q96GD4); conditions: Compound concentration 100.0 nM
[34] = molecular target: Testis-specific serine/threonine-protein kinase 3 (Homo sapiens) (UniProt Q96PN8); conditions: Compound concentration 100.0 nM
[35] = system: Phosphatidylinositol 4,5-bisphosphate 3-kinase catalytic subunit alpha isoform (Homo sapiens), P42336 [Q546K]; conditions: Compound concentration 100.0 nM
[36] = molecular target: Activin receptor type-2A (Homo sapiens) (UniProt P27037); conditions: Compound concentration 100.0 nM
[37] = molecular target: Serine/threonine-protein kinase PAK 6 (Homo sapiens) (UniProt Q9NQU5); conditions: Compound concentration 100.0 nM

Cc1c[nH]c2nccc(Oc3c(F)cc(Nc4cc(Cl)nc(N)n4)cc3F)c12 [BAY-549]
inactive: residual activity [1] 100% | residual activity [2] 100% | residual activity [3] 76% | residual activity [4] 59% | residual activity [5] 90% | residual activity [6] 82% | inhibition [7] 10.4% | residual activity [8] 100% | residual activity [9] 100% | residual activity [10] 98% | residual activity [11] 96% | residual activity [12] 100% | residual activity [13] 83% | residual activity [14] 90% | residual activity [15] 99% | residual activity [16] 80% | residual activity [17] 98% | residual activity [18] 75% | residual activity [19] 93% | residual activity [20] 100% | residual activity [21] 100% | residual activity [22] 81% | residual activity [23] 89% | residual activity [24] 68% | residual activity [25] 94% | residual activity [26] 97% | residual activity [27] 86% | residual activity [28] 100% | residual activity [29] 75% | residual activity [30] 95% | residual activity [31] 66% | residual activity [32] 100% | residual activity [33] 82% | residual activity [34] 100% | residual activity [35] 76% | residual activity [36] 94% | residual activity [37] 82%

Cn1cc(Cl)c2c(Oc3c(F)cc(Nc4cc(Cl)nc(N)n4)cc3F)ccnc21 [BAY-4900]
inactive: residual activity [1] 100% | residual activity [2] 100% | residual activity [3] 82% | residual activity [4] 83% | residual activity [5] 83% | residual activity [6] 83% | inhibition [7] 17.3% | residual activity [8] 100% | residual activity [9] 86% | residual activity [10] 100% | residual activity [11] 88% | residual activity [12] 100% | residual activity [13] 96% | residual activity [14] 76% | residual activity [15] 100% | residual activity [16] 90% | residual activity [17] 99% | residual activity [18] 78% | residual activity [19] 100% | residual activity [20] 97% | residual activity [21] 100% | residual activity [22] 100% | residual activity [23] 94% | residual activity [24] 86% | residual activity [25] 99% | residual activity [26] 100% | residual activity [27] 100% | residual activity [28] 94% | residual activity [29] 93% | residual activity [30] 79% | residual activity [31] 85% | residual activity [32] 100% | residual activity [33] 78% | residual activity [34] 100% | residual activity [35] 76% | residual activity [36] 87% | residual activity [37] 100%

From ChEMBL document CHEMBL4507274 (2021)
